Source: patent US12246010B2, “Formulations of tegavivint and related compounds” (Iterion Therapeutics, Inc., priority 2018, dated 2025)
Where “and” joins values, the source holds several entries; their conditions need not be identical. Identical values can stand only once. Like-named read-outs stand apart in the source and are kept apart here.

Key:
[1] = Aerosol particle size distribution by cascade impactor; format: physicochemical; settings: Covaris and Ball Mill (60 min); 0.1% Tween 80; 15.06 mg/mL; Hospitak
Procedure: Particle size distribution (PSD) of the test article was measured at the breathing zone using an In Tox, mercer style cascade impactor.
Particle size for test atmospheres was measured using an In-Tox Cascade impactor for suspensions prepared with 0.1% Tween 80 in ultrapure water, and the sponsor provided poloxamer suspension using a compressed air nebulizer.

red blood cells = assay: Hemolysis of red blood cells; format: cell-based; settings: in the nanoparticle form or when dissolved in DMSO
Text: It was hypothesized that the tween/ethanol/PEG/Vitamin E/Intralipid solvent-based excipients and probable drug precipitation were responsible for the infusion reactions and not tegavivint itself.

[2] = Pharmacokinetics after slow intravenous bolus in female Sprague-Dawley rats; format: in vivo; settings: 10 mg/kg slow intravenous bolus; for half-life: iv, 10 mg/kg
Procedure: The objective of this study was to investigate the pharmacokinetics of tegavivint following a single intravenous slow bolus administration of tegavivint to female Sprague-Dawley rats.
Dose Preparation and Administration The stock formulation (25 mg/mL) was provided. Accurately, 600 μL of dose formulation (Stock, 25 mg/mL) was transferred to labeled glass container. To this, 2.4 mL of 5% dextrose solution was added, vortex mixed and sonicated to obtain homogeneous suspension of 5 mg/mL strength. Animals were dosed underfed condition. Rats were administered a single dose of 10 mg/kg of tegavivint by slow intravenous bolus (over 1.5 min) jugular vein catheter using 1 mL BD syringe guided with 23 G blunt needle at a dose volume of 2 mL/kg. Syringes used for dosing were weighed before and after dose administration in order to calculate the actual dose administered.
Sample Collection and Processing Blood samples were collected at 0.083, 0.25, 0.5, 1, 2, 4, 6, 8, 12 and 24 h post dose. At each time point, approximately, 0.25 mL of blood was withdrawn from jugular vein of the cannulated rat and transferred to a labeled microfuge tube containing 200 mM K2EDTA (20 μL per mL of blood). Following sampling, equal volume of heparinized saline was replaced into the catheter. The blood samples were kept on wet ice at all times immediately after collection and the plasma was separated by centrifugation at 5000 g for 5 minutes at 4±2° C. The plasma samples were separated within 1 h of scheduled time and stored below −60° C. until bioanalysis.
Bioanalysis Bioanalysis was performed using fit-for-purpose LC-MS/MS method for the quantification of BC2059 in rat plasma samples. The calibration curve (CC) for the method consisted of at least 6 non-zero calibration standards along with a blank and blank with internal standard samples with a lower limit of quantification (LLOQ) of 0.050 μg/mL. Study samples were analyzed along with three sets of quality control samples (9 QC samples; low, medium and high QC samples in triplicate).
Pharmacokinetic Data Analysis The pharmacokinetic parameters for tegavivint were calculated using the non-compartmental analysis tool ([…]) of the validated Phoenix® WinNonlin® software (version 6.3). The area under the concentration time curve (AUClast and AUCinf) was calculated by linear trapezoidal rule. The CO (back extrapolated concentration at time zero) was estimated following intravenous bolus dose administration by back-extrapolating the first two concentration values. The total plasma clearance (CL) and volume of distribution at steady-state (Vss) were estimated values. The elimination rate constant value (k) was calculated by linear regression of the log-linear terminal phase of the concentration-time profile using at least 3 declining concentrations in terminal phase with a correlation coefficient of >0.8. The terminal half-life value (T½) was calculated using the equation 0.693/k. The alpha and beta half-lifes were calculated and reported.

[3] = test system: bleomycin-induced idiopathic pulmonary fibrosis (IPF); assay: Bleomycin-induced IPF mouse model: lung mechanics (FlexiVent compliance); format: in vivo, C57BL/6 male mice
Procedure: (§1) The purpose of this experiment was to investigate tegavivint nanosuspension in a mouse model of bleomycin-induced idiopathic pulmonary fibrosis (IPF). Test articles were as follows:
(§2) Murine model of pulmonary fibrosis was induced by intratracheally (IT) injected bleomycin (APP Pharmaceuticals, Schaumburg, IL). One dose of 0.025 U bleomycin dissolved in 50 microliters of Saline 0.9%, or PBS as control was administered to each animal on day 0.
Tegavivint nanosuspension was applied to Group 3 in the form of aerosols, through the method of whole body exposure. The mice were placed inside a plastic box. This box was sealed and connected by one of its sides to the outlet of the nebulizer device, and on the other side to a system of closed water. The whole procedure was carried out inside the fume hood of the animal room. In each treatment session, 5 ml of 25 mg/ml Tegavivint (125 mg) was nebulized over 15 min to each group of 4-5 mice in the chamber. To increase exposure of the mice to the aerosol, Tegavivint that precipitated in the aerosol chamber was collected with a syringe and re-nebulized a second and a third time. Mice were nebulized twice a day between day 5 and day 21 after administration of bleomycin. Group 1 and 2 received nebulized vehicle 5 ml in the same manner. […]

[4] = test system: bleomycin-induced idiopathic pulmonary fibrosis (IPF); assay: Bleomycin-induced IPF mouse model: total lung collagen content (Hydroxyproline Assay); format: in vivo, C57BL/6 male mice
Procedure: as §1, §2
Tegavivint nanosuspension was applied to Group 3 in the form of aerosols, through the method of whole body exposure. The mice were placed inside a plastic box. This box was sealed and connected by one of its sides to the outlet of the nebulizer device, and on the other side to a system of closed water. The whole procedure was carried out inside the fume hood of the animal room. In each treatment session, 5 ml of 25 mg/ml Tegavivint (125 mg) was nebulized over 15 min to each group of 4-5 mice in the chamber. […]
On Day 21 all animals were sacrificed and lungs were harvested. Total lung collagen content was evaluated using the Hydroxyproline Assay as previously described (Morales-Nebreda L, et al. AJRCMB 2015). […] The resulting pellet was resuspended in 1 ml of 0.5 M NaOH and Sirius red staining was quantified spectrophotometrically (540 nm) using a colorimetric plate reader (Bio-Rad, Hercules, CA).

[5] = female, Sprague-Dawley, plasma, rat
[6] = Group 3: IT bleomycin Day 0, 5 ml of 25 mg/ml tegavivint aerosol BID Day 5-21, Day 21, individual animals

For `C[C@@H]1C[C@H](C)CN(S(=O)(=O)c2ccc3c(c2)C(=NO)c2cc(S(=O)(=O)N4C[C@H](C)C[C@H](C)C4)ccc2C3=NO)C1` [BC2059, tegavivint], the GSD [1] was 2.21, the MMAD [1] was 1.26 µm and the “hemolysis of red blood cells” value (red blood cells) was “does not cause hemolysis”. For the same molecule, the “CL lower than normal rat liver blood flow of 55 mL/min/kg” value [2] was “about 5.5 fold”, the AUC(0-inf) [2, 5] was 17200 ng·h/mL and the AUC(0-t) [2, 5] was 14600 ng·h/mL. The MRT last [2, 5] was 4.07 h, the C0 ([2]; female, Sprague-Dawley, plasma, rat, back extrapolated) was 62.2 µg/mL and the clearance ([2]; female, Sprague-Dawley, plasma, rat, mean, n=4) was 9.92 mL/min/kg. The Vd ([2]; female, Sprague-Dawley, plasma, rat, mean, n=4, read-out: Vss) was 6.54 L/kg, the half-life ([2]; female, Sprague-Dawley, rat, plasma, regression points 0.5, 1 and 2 h, read-out: T1/2 Alpha (converted)) was 0.546 h and the half-life ([2]; female, Sprague-Dawley, rat, plasma, regression points 6, 8, 12 and 24 h, read-out: T1/2 Beta (converted)) was 13.8 h. The “Vss greater than normal body water of 0.7 L/kg” value ([2]; rat) was roughly 9.34 fold, the “effect on lung compliance after bleomycin injury” value ([3]; Group 3, inhaled) was “reversed the compliance values to near those of the sham-treated controls” and the Compliance [3, 6] was 0.05515 ml/cm H2O and 0.05604 ml/cm H2O and 0.06762 ml/cm H2O and 0.0543 ml/cm H2O and 0.0561 ml/cm H2O. The “effect on total lung collagen content after bleomycin injury” value ([4]; Group 3, inhaled) was “reversed this change” and the Hydroxyproline [4, 6] was 70.016 μg/half lung and 39.44 μg/half lung and 45.68 μg/half lung and 58.784 μg/half lung and 64.296 μg/half lung.
